Earlier results, collected in patent US11903920B2, “Cannabinoid formulation: production method and use” (CHIROSYN DISCOVERY TECHNOLOGIES INC., priority 2022, dated 2024).

Conditions: depending on the method and route of administration

For `C=C(C)[C@@H]1CCC(C)=C[C@H]1c1c(O)cc(CCCCC)cc1O` [CBD, 2-[1R-3-methyl-6R-(1-methylethenyl)-2-cyclohexen-1-yl]-5-pentyl-1,3-benzenediol], the Half-life is given as 1.4 to 120 h.
